Experiment [1] deals with T1, KAT2A (Homo sapiens, UniProt Q92830). The experiment is described as follows: Western blot of KAT2A level in acute myeloid leukemia MOLM-13 cells, 48 h. On the set-up: degrader, Western blot. Type of experiment: cell-based. The settings on record: FIG. 2 (A). The protocol: FIG. 2. Provided compounds can provide various activities. (A): Provided technologies can reduce KAT2A and KAT2B levels and histone acetylation levels. […] Cell count data after 8 days of treatment with compound 22 relative to DMSO control are presented as examples to confirm inhibition. […] (C): Provided technologies can modulate cell states and induce differentiation. […] EC50=0.3 nM.
A general note: Immunoblotting shows a protein as a band on a membrane.

The target in experiment [2] is T1, KAT2A. The experiment is described as follows: Western blot of KAT2A in NCI-H1048 tumors, 168 hours post last dose. Type of experiment: in vivo. The following applies: FIG. 1 (F). Also noted: degrader, Western blot. The protocol: FIG. 1. Provided compounds can provide various activities including inhibiting tumor growth in vivo. (A): Provided compounds can inhibit tumor growth in vivo. Nude Balb/c mice were inoculated with NCI-H1048 cells in Matrigel. Tumors were allowed to grow up to about 200 mm^3 and mice were then randomized into two groups. Mice were dosed intraperitoneally (i.p.) once per week with vehicle or 30 mg/kg compound 22. Tumor size was measured every three to four days and mice were sacrificed once vehicle tumors reached 2000 mm^3. Error bar is SEM. Dosing started at day 17 post tumor inoculation. (B): Provided technologies can reduce KAT2A and KAT2B levels and histone acetylation levels. […] Vehicle is DMSO. […] Cell count data relative to DMSO control after 8 days of treatment with compound 22 are presented as examples to confirm inhibition. GI50=6 nM. (D): Provided technologies can inhibit tumor growth in vivo. Nude balb/c mice inoculated with H1048 tumors were dosed intraperitoneally once per week (qw i.p.) with vehicle (HbCD) or compound 22. Average tumor volumes+/−SEM from 6 mice are represented. […] See also (A). […] Certain body weights relative to starting weight are presented as examples to confirm tolerability and safety. (F): Provided technologies can reduce KAT2A and KAT2B levels and histone acetylation levels in tumor in vivo. […]

Experiment [3] addresses T2, KAT2B (Homo sapiens, UniProt Q92831). Put plainly: KAT2B degradation, Western Blot (Jess), NCI-H1048 cells. Also noted: degrader, Western blot (Jess). Type of experiment: cell-based. In outline: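 NCI-H1048 cells grown in HITES medium with 5% FBS were treated with compounds for 24 h at 37° C. Lysates were run by capillary Western (Jess) with KAT2A or KAT2B antibodies and chemiluminescent detection. DC50 derived from percent protein reduction versus DMSO control.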

For the next experiment, the system named is MOLM-13 cells. The experiment is described as follows: Cell growth inhibition, AML cell line MOLM-13 (CyQuant, day 7). Type of experiment: cell-based. The settings on record: for GI50: Homo sapiens.
A further experiment deals with epithelial GSEA. Put plainly: Epithelial GSEA in LASCPC-01 cells. The class given is cell-based. The settings on record: LASCPC-01 cells as compared to DMSO; FIG. 3 (C). The protocol: (§1) FIG. 3. Provided compounds can provide various activities. (A): Provided technologies can reduce KAT2A and KAT2B levels and histone acetylation levels. […] Cell viability (Cell Titer Glo) data relative to DMSO control after 7 days of treatment with compound 22 are presented as examples to confirm inhibition. GI50=5 nM. (C): Provided technologies can modulate cell states and induce differentiation. […] (D): Provided technologies can reduce KAT2A and KAT2B levels and histone acetylation levels including in neuroendocrine prostate cancer primary patient organoid. […] Concentrations are nM. […] Cell viability data relative to DMSO control after 21 days of treatment with compound 22 are presented as examples to confirm inhibition. GI50=3 nM. (F): Provided technologies can modulate cell states and induce differentiation.

The target in experiment [4] is T2, KAT2B. The experiment is described as follows: Western blot of KAT2B level in NEPC primary patient organoid, 72 hours. The class given is cell-based. On the set-up: degrader, Western blot. The settings on record: FIG. 3 (D). How it is done:
as §1

A further experiment deals with LASCPC-01 cells. Put plainly: Inhibition of growth in vivo, neuroendocrine prostate cancer (LASCPC-01) cells. The settings on record: FIG. 3 (see also Example B3).

Read-outs that look alike come from different tables or passages of the source.

T2 sequence (Q92831 whole entry): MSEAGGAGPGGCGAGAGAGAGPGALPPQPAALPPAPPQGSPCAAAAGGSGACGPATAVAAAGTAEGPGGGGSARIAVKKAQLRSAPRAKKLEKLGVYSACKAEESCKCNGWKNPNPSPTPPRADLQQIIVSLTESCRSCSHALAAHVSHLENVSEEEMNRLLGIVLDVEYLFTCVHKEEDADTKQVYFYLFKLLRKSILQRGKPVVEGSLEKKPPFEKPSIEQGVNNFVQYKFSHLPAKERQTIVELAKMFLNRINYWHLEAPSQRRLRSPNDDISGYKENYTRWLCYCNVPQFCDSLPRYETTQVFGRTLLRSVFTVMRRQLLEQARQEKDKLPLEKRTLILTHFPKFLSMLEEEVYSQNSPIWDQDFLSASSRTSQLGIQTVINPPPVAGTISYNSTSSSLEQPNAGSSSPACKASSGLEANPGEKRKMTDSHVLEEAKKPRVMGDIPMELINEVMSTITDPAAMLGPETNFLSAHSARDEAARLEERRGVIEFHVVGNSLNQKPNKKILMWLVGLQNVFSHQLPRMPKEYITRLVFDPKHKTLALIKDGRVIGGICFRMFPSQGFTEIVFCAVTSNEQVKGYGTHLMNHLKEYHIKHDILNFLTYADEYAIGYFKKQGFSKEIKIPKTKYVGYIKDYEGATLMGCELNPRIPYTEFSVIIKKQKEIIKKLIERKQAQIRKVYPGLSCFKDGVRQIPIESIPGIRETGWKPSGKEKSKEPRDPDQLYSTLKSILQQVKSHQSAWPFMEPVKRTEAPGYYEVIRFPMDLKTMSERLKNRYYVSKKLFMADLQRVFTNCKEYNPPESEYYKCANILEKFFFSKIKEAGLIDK
T1 sequence (Q92830 whole entry): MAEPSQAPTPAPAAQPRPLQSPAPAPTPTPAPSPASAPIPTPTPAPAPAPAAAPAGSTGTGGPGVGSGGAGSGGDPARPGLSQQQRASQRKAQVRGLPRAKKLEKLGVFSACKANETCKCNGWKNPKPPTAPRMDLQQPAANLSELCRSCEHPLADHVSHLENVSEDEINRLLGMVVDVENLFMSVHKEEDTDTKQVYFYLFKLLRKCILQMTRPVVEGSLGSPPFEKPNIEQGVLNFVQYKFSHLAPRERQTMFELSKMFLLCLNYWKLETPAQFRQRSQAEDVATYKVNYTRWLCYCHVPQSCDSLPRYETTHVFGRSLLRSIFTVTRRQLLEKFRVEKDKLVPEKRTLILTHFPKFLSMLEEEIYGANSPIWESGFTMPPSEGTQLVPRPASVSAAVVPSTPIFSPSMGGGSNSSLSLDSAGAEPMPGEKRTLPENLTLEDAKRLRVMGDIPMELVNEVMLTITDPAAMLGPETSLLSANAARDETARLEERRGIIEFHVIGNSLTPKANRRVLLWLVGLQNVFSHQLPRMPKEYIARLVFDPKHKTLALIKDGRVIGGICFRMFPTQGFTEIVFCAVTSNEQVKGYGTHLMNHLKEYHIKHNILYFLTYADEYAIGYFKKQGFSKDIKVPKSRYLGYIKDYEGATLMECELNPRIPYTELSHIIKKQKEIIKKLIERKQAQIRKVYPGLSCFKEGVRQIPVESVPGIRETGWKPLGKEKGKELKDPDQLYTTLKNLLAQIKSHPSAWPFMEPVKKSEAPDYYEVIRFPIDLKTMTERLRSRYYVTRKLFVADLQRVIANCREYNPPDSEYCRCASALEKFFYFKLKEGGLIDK

In the case of `CN1C[C@H](Nc2cnn(C)c(=O)c2Br)C[C@H](c2ccc(C(=O)N3CCC(CN4CCN(c5ccc6c(c5)CN(C5CCC(=O)NC5=O)C6=O)CC4)CC3)cc2)C1` (stereo partly drawn) [Compound 22, 3-(5-(4-((1-(4-((3R,5R)-5-((5-bromo-1-methyl-6-oxo-1,6-dihydropyridazin-4-yl)amino)-1-methylpiperidin-3-yl)benzoyl)piperidin-4-yl)methyl)piperazin-1-yl)-1-oxoisoindolin-2-yl)piperidine-2,6-dione], the “reduction of KAT2A level” value at KAT2A [1] is “confirm such reduction”. Also, on KAT2A [2], the “reduction of KAT2A in tumor” value is recorded as “significant reduction”. Also, the EC90 at KAT2B [3] (24 h, NCI-H1048, KAT2B, read-out: DC90 (the source's name)) was 1.44 nM. In addition, the DC50 – broadly, the midpoint of the concentration-degradation curve – on KAT2B [3] (NCI-H1048, KAT2B, read-out: DC50) is 0.04 nM; at KAT2B [3] (NCI-H1048 cells, KAT2B, 24 h, Western Blot, vs DMSO, read-out: KAT2B NCI-H1048 DC50) it was below 1 nM. The KAT2B levels entry at KAT2B [3] (NCI-H1048 cells, FIG. 1) is “potently reduce KAT2A and KAT2B levels”. Moreover, the GI50 (as a rule, the concentration giving 50% growth inhibition) in the experiment with MOLM-13 cells (168 h, MOLM-13, day 7, CyQuant, read-out: MOLM13 GI50) came to 2.9 nM; in the experiment on MOLM-13 cells (MOLM-13, comparison table with Ref-1, read-out: Growth GI50), 1.2 nM. Moreover, the cell growth entry with MOLM-13 cells (MOLM-13 cells, FIG. 2) was “inhibit cell growth”. For the same molecule, in the experiment on epithelial GSEA, the “epithelial GSEA” value is listed as “significant upregulation”. For the same molecule, at KAT2B [4], the “reduction of KAT2B level” value was “confirmed such reductions”. In the experiment on LASCPC-01 cells, the “cell growth in vivo” value is “inhibit cell growth in vitro and in vivo”.

These data come from US20260306640A1, “TECHNOLOGIES TARGETING CELL STATES” (Auron Therapeutics, Inc., priority 2023, published 2026).
